These results are taken from US20240252445A1, “COMPOSITIONS AND METHODS OF PROMOTING AC[…] […] AND DIAGNOSTIC AGENTS IN THE HEART” (CASE WESTERN RESERVE UNIVERSITY, priority 2021, published 2024).

For the data set the following is noted: NBDG 1 mg/kg.

As to `O=[N+]([O-])c1ccc(N[C@H]2C(O)O[C@H](CO)[C@@H](O)[C@@H]2O)c2nonc12` (some centres unmarked) [NBDG], the NBDG fluorescence localisation entry (animals pre-injected with ePL, after organ perfusion) is “highly localized in the heart”. For the same compound, the “NBDG fluorescence in the heart in competition with unlabeled glucose” value (ePL pre-injected, unlabeled glucose 500 mg/kg) is “diminished”.
